Measurements reported in ChEMBL document CHEMBL5653615 (J Biol Chem, 2013).

Columns and labels:
[1] = target: Tyrosine-protein kinase JAK1 (Homo sapiens) (UniProt P23458); experiment: Inhibition of human JAK1 at 18.6 nM by HotSpot assay relative to control
[2] = target: T1, Dual specificity tyrosine-phosphorylation-regulated kinase 3 (Homo sapiens) (UniProt O43781); experiment: Inhibition of human DYRK3 at 18.6 nM by HotSpot assay relative to control
T1 sequence (whole entry): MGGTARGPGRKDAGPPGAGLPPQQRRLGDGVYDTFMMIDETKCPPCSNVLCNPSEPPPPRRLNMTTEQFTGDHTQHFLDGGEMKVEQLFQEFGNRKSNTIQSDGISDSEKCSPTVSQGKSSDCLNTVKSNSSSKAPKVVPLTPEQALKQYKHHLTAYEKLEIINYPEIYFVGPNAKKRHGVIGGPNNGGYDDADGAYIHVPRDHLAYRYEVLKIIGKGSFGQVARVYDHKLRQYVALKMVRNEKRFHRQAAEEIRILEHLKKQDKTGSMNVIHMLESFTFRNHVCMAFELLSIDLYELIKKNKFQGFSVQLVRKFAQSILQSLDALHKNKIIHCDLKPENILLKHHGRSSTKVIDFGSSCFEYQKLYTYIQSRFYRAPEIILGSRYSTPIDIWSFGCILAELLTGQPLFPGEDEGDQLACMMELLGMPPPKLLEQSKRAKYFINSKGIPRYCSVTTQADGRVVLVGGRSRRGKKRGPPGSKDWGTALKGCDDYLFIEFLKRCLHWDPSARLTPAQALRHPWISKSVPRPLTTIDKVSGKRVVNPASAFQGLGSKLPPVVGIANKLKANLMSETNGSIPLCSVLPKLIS

[3] = target: Calcium/calmodulin-dependent protein kinase kinase 1 (Homo sapiens) (UniProt Q8N5S9); experiment: Inhibition of human CAMKK1 at 500 nM by HotSpot assay relative to control
Calcium/calmodulin-dependent protein kinase kinase 1 (Homo sapiens), sequence (Q8N5S9 whole entry, looked up): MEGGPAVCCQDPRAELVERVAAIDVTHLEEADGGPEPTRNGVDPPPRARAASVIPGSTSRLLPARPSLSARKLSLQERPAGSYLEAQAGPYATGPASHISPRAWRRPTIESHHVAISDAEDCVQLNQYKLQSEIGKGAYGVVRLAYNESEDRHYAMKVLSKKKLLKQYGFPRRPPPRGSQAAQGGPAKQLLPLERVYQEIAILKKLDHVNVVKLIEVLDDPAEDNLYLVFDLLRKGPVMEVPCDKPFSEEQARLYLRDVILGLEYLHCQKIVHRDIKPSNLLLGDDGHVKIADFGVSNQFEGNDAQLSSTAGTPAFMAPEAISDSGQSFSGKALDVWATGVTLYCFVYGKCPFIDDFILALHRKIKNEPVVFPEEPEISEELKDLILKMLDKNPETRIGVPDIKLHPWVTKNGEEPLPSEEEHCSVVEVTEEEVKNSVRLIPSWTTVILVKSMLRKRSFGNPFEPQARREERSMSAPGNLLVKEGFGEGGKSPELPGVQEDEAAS

[4] = target: T2, Inhibitor of nuclear factor kappa-B kinase subunit beta (Homo sapiens) (UniProt O14920); experiment: Inhibition of human IKKb at 500 nM by HotSpot assay relative to control
T2 sequence (whole entry): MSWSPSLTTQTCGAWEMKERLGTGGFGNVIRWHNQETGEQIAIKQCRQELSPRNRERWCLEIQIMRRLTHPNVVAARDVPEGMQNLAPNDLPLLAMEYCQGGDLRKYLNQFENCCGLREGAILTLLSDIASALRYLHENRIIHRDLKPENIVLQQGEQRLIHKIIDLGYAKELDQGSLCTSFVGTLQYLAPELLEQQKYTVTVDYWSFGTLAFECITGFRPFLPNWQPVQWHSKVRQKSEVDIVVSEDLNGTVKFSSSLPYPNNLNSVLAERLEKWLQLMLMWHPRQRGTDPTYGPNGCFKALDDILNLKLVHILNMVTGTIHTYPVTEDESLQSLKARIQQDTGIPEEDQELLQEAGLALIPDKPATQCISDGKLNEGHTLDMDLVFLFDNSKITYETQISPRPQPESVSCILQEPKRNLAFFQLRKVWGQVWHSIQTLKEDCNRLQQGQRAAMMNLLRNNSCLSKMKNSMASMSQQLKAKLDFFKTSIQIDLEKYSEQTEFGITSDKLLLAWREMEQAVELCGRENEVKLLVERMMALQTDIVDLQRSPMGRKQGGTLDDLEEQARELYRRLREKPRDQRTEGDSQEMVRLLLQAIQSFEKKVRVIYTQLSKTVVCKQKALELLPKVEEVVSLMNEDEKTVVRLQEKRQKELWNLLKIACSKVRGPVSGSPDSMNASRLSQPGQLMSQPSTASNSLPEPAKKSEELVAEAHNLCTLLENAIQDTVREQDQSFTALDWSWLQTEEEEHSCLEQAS

[5] = target: Serine/threonine-protein kinase PLK1 (Homo sapiens) (UniProt P53350); experiment: Inhibition of human PLK1 at 1.82 nM by HotSpot assay relative to control
Serine/threonine-protein kinase PLK1 (Homo sapiens), sequence (P53350 whole entry): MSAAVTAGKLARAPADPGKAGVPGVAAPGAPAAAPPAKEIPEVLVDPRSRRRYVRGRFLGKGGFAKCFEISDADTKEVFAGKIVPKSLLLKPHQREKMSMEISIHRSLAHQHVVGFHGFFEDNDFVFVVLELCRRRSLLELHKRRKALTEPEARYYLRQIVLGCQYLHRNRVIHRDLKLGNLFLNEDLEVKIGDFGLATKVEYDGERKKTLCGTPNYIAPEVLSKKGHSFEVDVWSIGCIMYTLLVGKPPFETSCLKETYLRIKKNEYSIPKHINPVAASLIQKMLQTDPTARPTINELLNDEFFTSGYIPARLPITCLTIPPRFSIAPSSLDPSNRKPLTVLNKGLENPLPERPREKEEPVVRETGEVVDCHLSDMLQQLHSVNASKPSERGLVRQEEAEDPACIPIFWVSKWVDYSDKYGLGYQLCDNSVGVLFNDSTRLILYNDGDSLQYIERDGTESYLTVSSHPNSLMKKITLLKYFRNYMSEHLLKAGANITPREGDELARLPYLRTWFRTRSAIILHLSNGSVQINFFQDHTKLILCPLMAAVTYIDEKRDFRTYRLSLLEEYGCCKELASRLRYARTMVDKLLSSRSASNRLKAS

[6] = target: Calcium/calmodulin-dependent protein kinase type II subunit gamma (Homo sapiens) (UniProt Q13555); experiment: Inhibition of human CAMK2g at 1.82 nM by HotSpot assay relative to control
Calcium/calmodulin-dependent protein kinase type II subunit gamma (Homo sapiens), sequence (Q13555 whole entry): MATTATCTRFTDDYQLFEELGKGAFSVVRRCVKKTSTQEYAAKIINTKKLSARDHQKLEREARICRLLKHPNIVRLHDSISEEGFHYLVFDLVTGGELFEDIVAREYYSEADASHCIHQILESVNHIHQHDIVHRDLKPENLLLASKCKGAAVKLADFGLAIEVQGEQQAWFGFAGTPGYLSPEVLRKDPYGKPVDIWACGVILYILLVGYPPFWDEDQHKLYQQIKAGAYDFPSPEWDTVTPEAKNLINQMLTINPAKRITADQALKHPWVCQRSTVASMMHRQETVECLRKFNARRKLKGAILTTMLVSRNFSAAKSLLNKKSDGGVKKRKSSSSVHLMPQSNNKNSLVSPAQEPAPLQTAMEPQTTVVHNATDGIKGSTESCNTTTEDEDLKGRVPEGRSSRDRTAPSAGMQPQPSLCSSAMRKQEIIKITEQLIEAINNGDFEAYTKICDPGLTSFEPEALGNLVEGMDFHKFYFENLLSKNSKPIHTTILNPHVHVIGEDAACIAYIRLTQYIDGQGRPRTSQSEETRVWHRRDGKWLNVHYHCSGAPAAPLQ

[7] = target: Mitogen-activated protein kinase 10 (Homo sapiens) (UniProt P53779); experiment: Inhibition of human JNK3 at 1.82 nM by HotSpot assay relative to control
Mitogen-activated protein kinase 10 (Homo sapiens), sequence (P53779 whole entry): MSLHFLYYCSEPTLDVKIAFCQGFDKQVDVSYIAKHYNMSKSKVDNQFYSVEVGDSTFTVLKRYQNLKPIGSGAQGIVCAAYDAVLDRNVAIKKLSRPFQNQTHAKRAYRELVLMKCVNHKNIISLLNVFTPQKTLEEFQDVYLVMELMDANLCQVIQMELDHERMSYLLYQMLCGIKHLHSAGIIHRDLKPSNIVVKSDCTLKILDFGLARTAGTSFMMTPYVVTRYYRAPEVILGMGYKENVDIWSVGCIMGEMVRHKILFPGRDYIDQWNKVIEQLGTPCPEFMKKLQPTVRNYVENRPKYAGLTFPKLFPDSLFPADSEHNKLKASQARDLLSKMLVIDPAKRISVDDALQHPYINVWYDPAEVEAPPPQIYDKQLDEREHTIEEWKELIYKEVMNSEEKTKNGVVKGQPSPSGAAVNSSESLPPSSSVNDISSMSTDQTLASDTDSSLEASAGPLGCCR

[8] = target: T3, Mitogen-activated protein kinase kinase kinase kinase 2 (Homo sapiens) (UniProt Q12851); experiment: Inhibition of human GCK at 1.82 nM by HotSpot assay relative to control
T3 sequence (whole entry): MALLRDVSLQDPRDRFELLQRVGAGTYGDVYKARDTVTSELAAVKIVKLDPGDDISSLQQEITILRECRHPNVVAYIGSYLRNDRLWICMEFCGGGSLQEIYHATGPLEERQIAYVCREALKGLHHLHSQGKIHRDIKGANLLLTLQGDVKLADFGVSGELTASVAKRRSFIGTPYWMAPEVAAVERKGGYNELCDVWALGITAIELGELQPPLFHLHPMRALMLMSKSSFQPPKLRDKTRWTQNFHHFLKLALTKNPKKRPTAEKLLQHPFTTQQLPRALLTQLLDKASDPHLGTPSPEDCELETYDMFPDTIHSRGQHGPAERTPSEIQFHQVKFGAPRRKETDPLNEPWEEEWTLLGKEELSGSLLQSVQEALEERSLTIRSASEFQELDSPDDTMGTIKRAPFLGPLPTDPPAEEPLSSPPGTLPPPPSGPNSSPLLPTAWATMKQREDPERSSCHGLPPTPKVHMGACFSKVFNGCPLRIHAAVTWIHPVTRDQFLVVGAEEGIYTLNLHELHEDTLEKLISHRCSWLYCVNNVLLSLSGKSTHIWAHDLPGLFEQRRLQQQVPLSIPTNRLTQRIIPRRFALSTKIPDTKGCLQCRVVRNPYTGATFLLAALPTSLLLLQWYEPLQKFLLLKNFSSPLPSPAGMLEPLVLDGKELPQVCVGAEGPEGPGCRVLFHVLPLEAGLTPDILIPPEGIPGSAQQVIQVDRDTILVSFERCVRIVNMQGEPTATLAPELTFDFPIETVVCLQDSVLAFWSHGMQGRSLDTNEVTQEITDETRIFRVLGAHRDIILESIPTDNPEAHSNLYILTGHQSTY

Tyrosine-protein kinase JAK1 (Homo sapiens), sequence (P23458 whole entry): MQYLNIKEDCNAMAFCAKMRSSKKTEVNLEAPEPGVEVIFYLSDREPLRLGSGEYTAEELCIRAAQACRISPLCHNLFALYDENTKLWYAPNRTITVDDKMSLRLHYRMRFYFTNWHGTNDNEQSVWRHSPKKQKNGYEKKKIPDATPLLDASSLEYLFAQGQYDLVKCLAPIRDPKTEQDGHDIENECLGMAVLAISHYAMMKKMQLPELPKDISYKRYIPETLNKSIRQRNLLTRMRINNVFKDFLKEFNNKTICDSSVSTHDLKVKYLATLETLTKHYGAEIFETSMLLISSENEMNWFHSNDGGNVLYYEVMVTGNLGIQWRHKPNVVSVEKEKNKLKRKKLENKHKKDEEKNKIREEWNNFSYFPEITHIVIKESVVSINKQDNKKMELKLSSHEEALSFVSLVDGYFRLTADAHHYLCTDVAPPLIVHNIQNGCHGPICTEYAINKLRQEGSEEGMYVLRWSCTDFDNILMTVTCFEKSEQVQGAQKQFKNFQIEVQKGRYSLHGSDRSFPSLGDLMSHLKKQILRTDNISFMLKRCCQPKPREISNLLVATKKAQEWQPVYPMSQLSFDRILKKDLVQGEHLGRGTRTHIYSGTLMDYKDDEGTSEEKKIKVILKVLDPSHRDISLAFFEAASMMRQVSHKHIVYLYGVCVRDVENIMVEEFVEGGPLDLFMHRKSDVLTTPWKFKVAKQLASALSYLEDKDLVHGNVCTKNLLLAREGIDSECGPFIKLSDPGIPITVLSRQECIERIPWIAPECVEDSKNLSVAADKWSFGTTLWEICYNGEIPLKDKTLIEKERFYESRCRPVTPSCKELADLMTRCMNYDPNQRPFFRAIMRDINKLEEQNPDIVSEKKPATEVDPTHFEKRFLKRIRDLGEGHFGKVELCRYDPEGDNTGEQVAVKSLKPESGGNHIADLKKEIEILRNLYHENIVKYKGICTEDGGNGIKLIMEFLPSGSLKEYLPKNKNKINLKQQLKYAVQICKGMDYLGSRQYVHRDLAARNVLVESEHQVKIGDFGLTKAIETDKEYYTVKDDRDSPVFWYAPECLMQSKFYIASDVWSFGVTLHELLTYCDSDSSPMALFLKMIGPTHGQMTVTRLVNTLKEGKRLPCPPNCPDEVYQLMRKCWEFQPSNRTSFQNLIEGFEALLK

For C[C@]1(O)C[C@@H](c2nc(-c3ccc4ccc(-c5ccccc5)nc4c3)c3c(N)nccn32)C1, the inhibition [1] was -9.75% and the inhibition [2] was 3.01%.
Oc1n[nH]c2nnc(-c3c(-c4ccccc4)nn4ccccc34)cc12 showed an inhibition [3] of -9.31% and an inhibition [4] of -0.37%.
C[C@@]1(C(=O)Nc2ccc(F)nc2)CCCN1c1nc(Nc2cc(C3CC3)n[nH]2)c2cccn2n1 was tested, and the inhibition [5] was -4.97%, the inhibition [6] was 4.1% and the inhibition [7] was -8.84%. For the same compound, the inhibition [8] was -0.04%.
